Measured values published in ChEMBL document CHEMBL5543106, “Fragment growth-based discovery of novel TNIK inhibitors for the treatment of colorectal cancer” (Eur J Med Chem, 2024).

Assays:
Format in all cases: ADME, organism-based
[1] = AUC(0 to t) in BALB/c mouse at 10 mg/kg, po measured upto 24 hrs by LC-MS/MS analysis; conditions: in vivo
[2] = Tmax in BALB/c mouse at 5 mg/kg, iv measured upto 24 hrs by LC-MS/MS analysis; conditions: in vivo
[3] = MRT(0 to t) in BALB/c mouse at 10 mg/kg, po measured upto 24 hrs by LC-MS/MS analysis; conditions: in vivo
[4] = Tmax in BALB/c mouse at 10 mg/kg, po measured upto 24 hrs by LC-MS/MS analysis; conditions: in vivo
[5] = Apparent volume of distribution in BALB/c mouse at 5 mg/kg, iv measured upto 24 hrs by LC-MS/MS analysis; conditions: in vivo, read-out: Vz
[6] = Bioavailability in BALB/c mouse at 5 mg/kg, iv measured upto 24 hrs by LC-MS/MS analysis; conditions: in vivo
[7] = AUC(0 to t) in BALB/c mouse at 5 mg/kg, iv measured upto 24 hrs by LC-MS/MS analysis; conditions: in vivo
[8] = MRT(0 to t) in BALB/c mouse at 5 mg/kg, iv measured upto 24 hrs by LC-MS/MS analysis; conditions: in vivo
[9] = Cmax in BALB/c mouse at 10 mg/kg, po measured upto 24 hrs by LC-MS/MS analysis; conditions: in vivo
[10] = Cmax in BALB/c mouse at 5 mg/kg, iv measured upto 24 hrs by LC-MS/MS analysis; conditions: in vivo
[11] = Apparent volume of distribution in BALB/c mouse at 10 mg/kg, po measured upto 24 hrs by LC-MS/MS analysis; conditions: in vivo

In the case of `Cn1cnc(-c2ccc(F)cc2)c1-c1ccc2ncc(C#CC(C)(C)O)cc2c1`, the AUC(0-t) at 24 h [1] is reported as 45700 ng·h/mL, the Tmax [2] is reported as 4.98 min and the MRT last at 24 h [3] is reported as 6.11 h. For the same molecule, the Tmax [4] was 1.17 h, the Vd [5] was 0.846 L/kg and the bioavailability [6] was 84.6%. For the same molecule, the AUC(0-t) at 24 h [7] was 27000 ng·h/mL, the MRT last at 24 h [8] was 4.46 h and the Cmax [9] was 5250 ng/mL. It also gave a Cmax [10] of 6340 ng/mL and a Vz [11] of 1.41 L/kg.
